Assay results taken from publication PMC6033897, “Characterization and Validation of a Human 3D Cardiac Microtissue for the Assessment of Changes in Cardiac Pathology” (Scientific Reports, 2018).

Columns and labels:
cardiac microtissues [1] = test: Cellular viability (ATP depletion, CellTiter-Glo) in cardiac microtissues; format: cell-based, human; details: for IC50: Homo sapiens, read-out: Cellular viability (ATP depletion) IC50
Procedure: (§1) Cellular ATP concentrations were assessed using the CellTiter-Glo® Luminescent Cell Viability Assay as per the manufacturer’s instructions (Promega); for cardiac microtissues 40 µl media was removed prior to the addition of 40 µl CellTiter-Glo® reagent. […] Data from the same treatment on minimum of 3 occasions were averaged to represent the mean ATP measurement.

cardiac microtissues [2] = test: ER integrity (ER-Tracker blue imaging) in cardiac microtissues; format: cell-based, human; details: for IC50: Homo sapiens, read-out: ER integrity IC50
Procedure: (§2) Cardiac microtissues were stained with fluorescent probes in cell culture media, 40 µl media was removed and 40 µl of 2x multiplexed dye was added back to the well for 30 minutes at 37 °C, 5% CO2. Fluorescent probes used were ER-Tracker blue (2 µM) to measure endoplasmic reticulum (ER) integrity and TMRE (500 nM) to measure mitochondrial membrane potential (ΔΨm). All microtissues were imaged on a Cell Voyager 7000 (YokogawaInc.) and images captured using a 20x objective (Olympus UPLSAPO 0.75 NA, 0.6 mm WD), with a 2 × 2 bin. Plates are imaged live, prior to use the stage temperature was set to 37 °C and CO2 level at 5%. […] Transmitted light images were acquired using a 100 W Halogen lamp as an illumination source. Images were captured over a 60 μm range in the Z-axis with a 5 μm interval between slices. Z-stack images were output as a maximal projection of multiple z-planes.
(§3) Maximum projection images were imported and analysed in the Columbus Platform (v2.7, Perkin Elmer Inc.).

cardiac microtissues [3] = test: Mitochondrial membrane potential (ΔΨm, TMRE imaging) in cardiac microtissues; format: cell-based, human; details: for IC50: Homo sapiens, read-out: Mitochondrial membrane potential (ΔΨm) IC50
Procedure: as §2, §3

[4] = total Cmax, therapeutically relevant maximum total plasma concentration; source not given; cited from earlier work
hCMEC [5] = test: ER integrity in 2D monoculture; format: cell-based; details: Homo sapiens
Procedure: (§4) For 2D monoculture, hiPS-CM, hCMEC and hCF were cultured as described above and seeded in CellCarrier-384 Ultra microplates (Perkin Elmer, 6057300) at 5000, 2500 and 1750 cells/well respectively.
(§5) Monoculture cells were stained with fluorescent probes diluted in cell culture media, 25 µl media was removed and 25 µl of 2x multiplexed dye was added back to the well for 15 minutes at 37 °C, 5% CO2.

hiPS-CM [6] = test: ER integrity in 2D monoculture; format: cell-based; details: Homo sapiens
Procedure: as §4, §5

hCMEC [7] = test: Mitochondrial membrane potential (ΔΨm) in 2D monoculture; format: cell-based; details: Homo sapiens
Procedure: as §4, §5

hiPS-CM [8] = test: as above; format: cell-based; details: Homo sapiens
Procedure: as §4, §5

hCMEC [9] = test: Cellular viability (ATP depletion) in 2D monoculture; format: cell-based; details: Homo sapiens
Procedure: as §4, §1

hiPS-CM [10] = test: as above; format: cell-based; details: Homo sapiens, 72 hours
Procedure: as §4, §1

hCF [11] = test: ER integrity in 2D monoculture; details: Homo sapiens, read-out: ER integrity IC50
hCF [12] = test: Cellular viability (ATP depletion) in 2D monoculture; details: Homo sapiens, read-out: Cellular viability (ATP depletion) IC50
hCF [13] = test: Mitochondrial membrane potential (ΔΨm) in 2D monoculture; details: Homo sapiens, read-out: Mitochondrial membrane potential (ΔΨm) IC50
[14] = cardiac microtissues, 72 hours, geometric mean
[15] = cardiac microtissues, mechanistic fingerprint

Compound | IC50 (cardiac microtissues [1]; [14]) [µM] | IC50 (cardiac microtissues [2]; [14]) [µM] | IC50 (cardiac microtissues [3]; [14]) [µM] | Cmax [4] [µM] | further results
COC(=O)Nc1nc2ccc(C(=O)c3ccccc3)cc2[nH]1 [Mebendazole] | > 50 | 5.97 | > 50 | 2.03 | –
C#Cc1cccc(Nc2ncnc3cc(OCCOC)c(OCCOC)cc23)c1 [Erlotinib] | 20.8 | > 30 | > 30 | 3 | –
CC(C(=O)O)c1cccc(C(=O)c2ccccc2)c1 (stereo not drawn) [Ketoprofen] | 37.6 | > 100 | > 100 | – | –
CS(=O)(=O)CCNCc1ccc(-c2ccc3ncnc(Nc4ccc(OCc5cccc(F)c5)c(Cl)c4)c3c2)o1 [Lapatinib] | 12.9 | > 100 | 2.84 | 4.18 | Cellular viability modulated at multiple of total Cmax (cardiac microtissues [1]; [15]): ≤ 10 times the total Cmax; ER integrity modulated at multiple of total Cmax (cardiac microtissues [2]; [15]): ≤ 100 times the total Cmax; ΔΨm modulated at multiple of total Cmax (cardiac microtissues [3]; [15]): ≤ 1 times the total Cmax; IC50 (hCMEC [5]; 24 hours): 26.7 µM; IC50 (hCMEC [5]; 72 hours): 4.4 µM; IC50 (hiPS-CM [6]; 24 hours): 23.6 µM; IC50 (hiPS-CM [6]; 72 hours): 3.1 µM; IC50 (hCMEC [7]; 24 hours): 5.47 µM; IC50 (hCMEC [7]; 72 hours): 11.6 µM; IC50 (hiPS-CM [8]; 24 hours): 31.9 µM; IC50 (hiPS-CM [8]; 72 hours): 23.6 µM; IC50 (hCMEC [9]; 24 hours): 16.2 µM; IC50 (hCMEC [9]; 72 hours): 3.07 µM; IC50 (hiPS-CM [10]): > 100 µM; IC50 (hCF [11]; 24 h): 14.7 µM; IC50 (hCF [11]; 72 h): 11 µM; IC50 (hCF [12]; 24 h): 21.6 µM; IC50 (hCF [12]; 72 h): 11 µM; IC50 (hCF [13]; 24 h): 42.9 µM; IC50 (hCF [13]; 72 h): 28.8 µM
Nc1cc(N2CCCCC2)nc(N)[n+]1[O-] [Minoxidil] | > 50 | > 50 | > 50 | 14.8 | –
O=C1c2c(O)ccc(O)c2C(=O)c2c(NCCNCCO)ccc(NCCNCCO)c21 [Mitoxantrone diHCl] | 0.29 | 1.1 | 0.98 | – | –
CN(C)CCN(Cc1cccs1)c1ccccn1 [Methapyrilene] | – | – | – | 15.3 | –
CC(C)(C)c1ccc(C(O)CCCN2CCC(C(O)(c3ccccc3)c3ccccc3)CC2)cc1 (stereo not drawn) [Terfenadine] | 13 | 23.7 | > 100 | 0.13 | –
C[C@@H]1[C@H](O)[C@@H](C)/C=C/C=C/C=C/C=C/C=C/C=C/C=C/[C@H](O[C@@H]2O[C@H](C)[C@@H](O)[C@H](N)[C@@H]2O)C[C@@H]2O[C@](O)(C[C@@H](O)C[C@@H](O)[C@H](O)CC[C@@H](O)C[C@@H](O)CC(=O)O[C@H]1C)C[C@H](O)[C@H]2C(=O)O [Amphotericin B] | 37.6 | 3.56 | > 50 | 9 | –
O=c1[nH]cc(F)c(=O)[nH]1 [Fluorouracil] | 27.5 | 60 | 11.3 | 4.61 | –
O=P1(N(CCCl)CCCl)NCCCO1 (stereo not drawn) [Cyclophosphamide] | – | – | – | 153 | IC50 (cardiac microtissues [1]; 72 h): 54.4 µM; IC50 (cardiac microtissues [2]; 72 h): 60.7 µM; IC50 (cardiac microtissues [3]; 72 h): 65.7 µM
Nc1nc2c(ncn2COCCO)c(=O)[nH]1 [Acyclovir] | > 100 | > 100 | > 100 | 6.66 | –
